Measured values: ChEMBL document CHEMBL4118184, “Design, synthesis and biological evaluation of novel pyrimidinedione derivatives as DPP-4 inhibitors” (Bioorg Med Chem Lett, 2018)
Activity calls are given as the source filed them. The calls are words filed in the database; no cut-off is given here.

Test system: Mus musculus
Test: Toxicity in BKS db/db mouse assessed as effect on water intake at 100 mg/kg/day up to 4 weeks
Format: organism-based
Settings: in vivo, 672 h
For `CN(C)C(=N)N=C(N)N` [METFORMIN], the Activity was “Toxic”. With `COc1ccc(Cn2c(=O)cc(N3CCC[C@@H](N)C3)n(Cc3cc(F)ccc3C#N)c2=O)cc1OC.O=C(O)CCC(=O)O` the Activity was “Toxic”.

Test system: Mus musculus
Test: Toxicity in BKS db/db mouse assessed as effect on body weight at 100 mg/kg/day up to 4 weeks
Format: organism-based
Settings: in vivo, 672 h
With `CN(C)C(=N)N=C(N)N` [METFORMIN] the Activity was “Non-Toxic”. For `COc1ccc(Cn2c(=O)cc(N3CCC[C@@H](N)C3)n(Cc3cc(F)ccc3C#N)c2=O)cc1OC.O=C(O)CCC(=O)O`, the Activity was “Non-Toxic”.

Test system: Mus musculus
Test: Effect on abdominal fat content in BKS db/db mouse assessed as reduction in abdominal fat ratio at 100 mg/kg/day for 4 weeks
Format: functional, organism-based
Settings: not given
With `COc1ccc(Cn2c(=O)cc(N3CCC[C@@H](N)C3)n(Cc3cc(F)ccc3C#N)c2=O)cc1OC` [listing 1 of 2 here] the Activity was “inactive”. For `CN(C)C(=N)NC(=N)N`, the Activity was “inactive”.

Test system: Mus musculus
Test: Antihyperglycemic activity in BKS db/db mouse assessed as reduction in blood glucose level at 100 mg/kg/day for 4 weeks by glucometric analysis
Format: functional, organism-based
Settings: not given
In the case of `COc1ccc(Cn2c(=O)cc(N3CCC[C@@H](N)C3)n(Cc3cc(F)ccc3C#N)c2=O)cc1OC` [listing 1 of 2 here], the Activity was “Active”. With `CN(C)C(=N)NC(=N)N` the Activity was “Active”.

Test system: not listed separately
Test: Lipophilicity, log P of the compound
Format: physicochemical
Settings: octanol/water
`COc1ccc(Cn2c(=O)cc(N3CCC[C@@H](N)C3)n(Cc3cc(F)ccc3C#N)c2=O)cc1OC` [listing 2 of 2 here] gave a logP of 2.66. `COc1cc(Cn2c(=O)cc(N3CCC[C@@H](N)C3)n(Cc3cc(F)ccc3C#N)c2=O)c(Br)c(Br)c1OC` showed a logP of 4.32. For `N#Cc1ccc(F)cc1Cn1c(N2CCC[C@@H](N)C2)cc(=O)n(Cc2cc(F)cc(F)c2)c1=O`, the logP was 3.23. With `CC#CCn1c(N2CCC[C@@H](N)C2)cc(=O)n(CCC)c1=O` the logP was 0.9. In the case of `CC#CCn1c(N2CCC[C@@H](N)C2)cc(=O)n(Cc2cc(F)cc(F)c2)c1=O`, the logP was 2.12. In the case of `CC#CCn1c(N2CCC[C@@H](N)C2)cc(=O)n(Cc2cc(Br)c(OC)c(OC)c2)c1=O`, the logP was 2.38. `CC#CCn1c(N2CCC[C@@H](N)C2)cc(=O)n(CCCCCCCCCC)c1=O` gave a logP of 3.82. In the case of `COc1c(Br)c(Br)c(Cn2c(=O)cc(N3CCC[C@@H](N)C3)n(Cc3cc(F)ccc3C#N)c2=O)c(Br)c1OC`, the logP was 5.15. With `CCCCCCCCCCn1c(=O)cc(N2CCC[C@@H](N)C2)n(Cc2cc(F)ccc2C#N)c1=O` the logP was 4.93. Compound `CC#CCn1c(N2CCC[C@@H](N)C2)cc(=O)n(CC)c1=O` has a logP of 0.41. Work on `CC#CCn1c(N2CCC[C@@H](N)C2)cc(=O)n(Cc2ccc(OC)c(OC)c2)c1=O` yielded a logP of 1.55. Compound `CC#CCn1c(N2CCC[C@@H](N)C2)cc(=O)n(Cc2cc(OC)c(OC)c(Br)c2Br)c1=O` has a logP of 3.21. Compound `CCCCCCn1c(=O)cc(N2CCC[C@@H](N)C2)n(Cc2cc(F)ccc2C#N)c1=O` has a logP of 3.26. In the case of `CC#CCn1c(N2CCC[C@@H](N)C2)cc(=O)n(Cc2c(Br)c(Br)c(OC)c(OC)c2Br)c1=O`, the logP was 4.04. For `CC#CCn1c(N2CCC[C@@H](N)C2)cc(=O)n(CCCCCC)c1=O`, the logP was 2.15. Work on `Cc1cc(C)cc(Cn2c(=O)cc(N3CCC[C@@H](N)C3)n(Cc3cc(F)ccc3C#N)c2=O)c1` yielded a logP of 3.89. With `COc1cc(Cn2c(=O)cc(N3CCC[C@@H](N)C3)n(Cc3cc(F)ccc3C#N)c2=O)cc(Br)c1OC` the logP was 3.49. With `CC#CCn1c(N2CCC[C@@H](N)C2)cc(=O)n(Cc2cc(C)cc(C)c2)c1=O` the logP was 2.78.
